Source: patent US20050009924A1 (priority 2003, published 2005)

How the values were obtained:
rat glioma C6 cells = assay: Cytotoxicity assay (XTT colorimetric), C6 cells; assay type: cell-based; settings: 48 h of drug exposure
[1] = tested on: transcriptional activity of hTERT; assay: SEAP reporter assay of hTERT expression, PhTERT-SEAP (hTERT-BJ1); assay type: cell-based, human
Experimental: (§1) Secreted alkaine phosphatase was used as the reporter system to monitor the transcriptional activity of hTERT. Here, about […] each were grown in 96-well plates and incubated at 37° C. for 24 h and changed with fresh media. Varying amounts of drugs were added and cells were incubated for another 24 h. Culture media were collected and heated at 65° C. for 10 min to inactivate heat-labile phosphatases. An equal amount of SEAP buffer (2 M diethanolamine, 1 mM MgCl2, and 20 mM […]) was added to the media and p-nitrophenyl phosphate was added to a final concentration of 12 mM. Absorptions at 405 nm were taken, and the rate of absorption increase is determined.
(§2) Culture media were changed every 3 days. […] The stable clones were selected using G418.

human hepatoma G2 cells = assay: Cytotoxicity assay (XTT colorimetric), Hep G2; assay type: cell-based; settings: 48 h of drug exposure
[2] = MTT relative viability, PhTERT-SEAP (H1299) cells; settings: human
[3] = MTT relative viability, PhTERT-SEAP (hTERT-BJ1) cells; settings: human
[4] = tested on: transcriptional activity of hTERT; assay: SEAP reporter assay of hTERT expression, PhTERT-SEAP (H1299); assay type: cell-based, human
Experimental: as §1, §2

[5] = tested on: hepatitis B virus transfected hepatoma cell lines, HepG 2.2.15 cells; assay: Cytotoxicity assay, 2.2.15 cells; assay type: cell-based, human; settings: 48 h of drug exposure
[6] = Homo sapiens, hTERT-BJ1, read-out: Relative SEAP activity (%)
[7] = Homo sapiens, NCI-H1299, hTERT-H1299, read-out: Relative SEAP activity (%)
[8] = hTERT-BJ1 cells stably transfected with PhTERT-SEAP reporter

SMILES: CC(C)CNc1cccc2c1C(=O)c1cccc(NCC(C)C)c1C2=O
- IC50 (rat glioma C6 cells; Rattus norvegicus, C6): 12.7 ± 0.37 µM
- activity at 2.8 µM [1, 6]: 22 ± 18.3%
- activity at 28 µM [1, 6]: 22 ± 21.4%
- activity at 285 µM [1, 6]: 29 ± 3.9%
- IC50 (human hepatoma G2 cells; Homo sapiens, HepG2): 14.3 ± 1.54 µM
- viability at 48 h, 2.8 µM [2]: 108 ± 4.8%
- viability at 48 h, 28 µM [2]: 106 ± 3.7%
- viability at 48 h, 285 µM [2]: 80 ± 4.8%
- viability at 48 h, 285 µM [3]: 72 ± 3.3%
- viability at 48 h, 2.8 µM ([3]; hTERT-BJ1 cells): 110 ± 7.6%
- viability at 48 h, 28 µM ([3]; hTERT-BJ1 cells): 103 ± 3%
- activity at 2.8 µM [4, 7]: 94 ± 7%
- activity at 28 µM [4, 7]: 91 ± 2.5%
- activity at 285 µM [4, 7]: 75 ± 4.1%
- IC50 ([5]; Homo sapiens, HepG2.2.15): > 20 µM

SMILES: NCCCNc1cccc2c1C(=O)c1cccc(NCCCN)c1C2=O
- IC50 (rat glioma C6 cells; Rattus norvegicus, C6): 12.18 ± 0.04 µM
- activity at 2.8 µM [1, 6]: 103 ± 19.8%
- activity at 28 µM [1, 6]: 47 ± 20.5%
- activity at 283 µM ([1]; Homo sapiens, 283 μM, hTERT-BJ1, read-out: Relative SEAP activity (%)): 60 ± 15.1%
- IC50 (human hepatoma G2 cells; Homo sapiens, HepG2): 11.67 ± 0.09 µM
- viability at 48 h, 2.8 µM [2]: 85 ± 11.5%
- viability at 48 h, 28 µM [2]: 32 ± 9.3%
- viability at 48 h, 283 µM [2]: 16 ± 2.1%
- viability at 48 h, 2.8 µM ([3]; hTERT-BJ1 cells): 85 ± 6.9%
- viability at 48 h, 28 µM ([3]; hTERT-BJ1 cells): 3 ± 6.9%
- activity at 2.8 µM [4, 7]: 102 ± 4.9%
- activity at 28 µM [4, 7]: 44 ± 7.5%
- activity at 283 µM ([4]; Homo sapiens, NCI-H1299, 283 μM, hTERT-H1299, read-out: Relative SEAP activity (%)): 38 ± 6%
- IC50 ([5]; Homo sapiens, HepG2.2.15): 7.48 µM

SMILES: COc1cccc2c1C(=O)c1c(O)c3c(c(O)c1C2=O)C[C@@](O)(C(=O)CO)C[C@@H]3O[C@H]1C[C@H](N)[C@H](O)[C@H](C)O1 [Adriamycin, reference compound]
- IC50 (rat glioma C6 cells; Rattus norvegicus, C6): 1 µM
- IC50 (human hepatoma G2 cells; Homo sapiens, HepG2): 0.9 ± 0.01 µM
- IC50 ([5]; Homo sapiens, HepG2.2.15): 1.6 µM

SMILES: N.N.[Cl][Pt][Cl] [Cisplatin, reference compound]
- IC50 (rat glioma C6 cells): > 1 µM
- IC50 (human hepatoma G2 cells): 1.48 ± 0.62 µM
- IC50 [5]: 2 ± 0.54 µM

SMILES: CN(C)CCNc1cccc2c1C(=O)c1cccc(NCCN(C)C)c1C2=O [IVd, 1,5-Bis(2-dimethylaminoethylamino)anthraquinone]
- IC50 (rat glioma C6 cells; Rattus norvegicus, C6): 0.12 µM
- activity at 2.6 µM ([1]; Homo sapiens, 2.6 μM, hTERT-BJ1, read-out: Relative SEAP activity (%)): 11 ± 22.4%
- activity at 26 µM ([1]; Homo sapiens, 26 μM, hTERT-BJ1, read-out: Relative SEAP activity (%)): -15%
- activity at 262 µM ([1]; Homo sapiens, 262 μM, hTERT-BJ1, read-out: Relative SEAP activity (%)): -26%
- IC50 (human hepatoma G2 cells; Homo sapiens, HepG2): 0.09 ± 0.01 µM
- viability at 48 h, 2.6 µM [2]: 107 ± 9.1%
- viability at 48 h, 26 µM [2]: 81 ± 8.3%
- viability at 48 h, 262 µM [2]: 29 ± 2.6%
- viability at 48 h, 2.6 µM ([3]; hTERT-BJ1 cells): 92 ± 4.8%
- viability at 48 h, 26 µM ([3]; hTERT-BJ1 cells): 76 ± 5.9%
- viability at 48 h, 262 µM ([3]; hTERT-BJ1 cells): 7 ± 18.2%
- activity at 2.6 µM ([4]; Homo sapiens, NCI-H1299, 2.6 μM, hTERT-H1299, read-out: Relative SEAP activity (%)): 103 ± 6%
- activity at 26 µM ([4]; Homo sapiens, NCI-H1299, 26 μM, hTERT-H1299, read-out: Relative SEAP activity (%)): 54 ± 5.9%
- activity at 262 µM ([4]; Homo sapiens, NCI-H1299, 262 μM, hTERT-H1299, read-out: Relative SEAP activity (%)): 40 ± 5.9%
- IC50 ([5]; Homo sapiens, HepG2.2.15): 0.13 µM

SMILES: CCCCNc1cccc2c1C(=O)c1cccc(NCCCC)c1C2=O [IVj, 1,5-Bis(butylamino)anthraquinone]
- IC50 (rat glioma C6 cells; Rattus norvegicus, C6): > 20 µM
- activity at 2.8 µM [1, 6]: 98 ± 27.4%
- activity at 28 µM [1, 6]: 103 ± 27%
- activity at 285 µM [1, 6]: 123 ± 22.9%
- IC50 (human hepatoma G2 cells; Homo sapiens, HepG2): > 20 µM
- viability at 48 h, 2.8 µM [2]: 102 ± 7%
- viability at 48 h, 28 µM [2]: 104 ± 9.2%
- viability at 48 h, 285 µM [2]: 81 ± 13.9%
- viability at 48 h, 285 µM [3]: 75 ± 5.9%
- viability at 48 h, 2.8 µM ([3]; hTERT-BJ1 cells): 109 ± 9.1%
- viability at 48 h, 28 µM ([3]; hTERT-BJ1 cells): 99 ± 5.9%
- activity at 2.8 µM [4, 7]: 106 ± 7.1%
- activity at 28 µM [4, 7]: 105 ± 5.5%
- activity at 285 µM [4, 7]: 98 ± 5.2%
- IC50 ([5]; Homo sapiens, HepG2.2.15): > 20 µM

SMILES: O=C1c2cccc(NC3CCCC3)c2C(=O)c2cccc(NC3CCCC3)c21 [IVo, 1,5-Bis(cyclopentaneamino)-anthraquinone]
- IC50 (rat glioma C6 cells): > 20 µM
- IC50 (human hepatoma G2 cells): > 20 µM
- IC50 [5]: > 20 µM

SMILES: O=C1c2cccc(Nc3ccc(O)cc3)c2C(=O)c2cccc(Nc3ccc(O)cc3)c21 [IVq, 1,5-Bis(phenolamino)-anthraquinone]
- IC50 (rat glioma C6 cells): 14.21 ± 0.08 µM
- IC50 (human hepatoma G2 cells): 4.2 ± 0.76 µM
- IC50 [5]: > 20 µM

SMILES: CC(=O)Nc1ccc(NC(C)=O)c2c1C(=O)c1ccccc1C2=O [VI3, 1,4-Bisacetamido-9,10-anthracenedione]
- IC50 (rat glioma C6 cells; Rattus norvegicus, C6): > 20 µM
- SEAP/vibility ([1]; 3.1 μM, PhTERT-SEAP (hTERT-BJ1)): 0.66
- SEAP/vibility ([1]; 31 μM, PhTERT-SEAP (hTERT-BJ1)): 0.87
- SEAP/vibility ([1]; 310 μM, PhTERT-SEAP (hTERT-BJ1)): 1.20
- activity at 3.1 µM ([1]; Homo sapiens, 3.1 μM, PhTERT-SEAP (hTERT-BJ1), read-out: Relative SEAP activity (%)): 77 ± 12.4%
- activity at 31 µM ([1]; Homo sapiens, 31 μM, PhTERT-SEAP (hTERT-BJ1), read-out: Relative SEAP activity (%)): 83 ± 10%
- activity at 310 µM ([1]; Homo sapiens, 310 μM, PhTERT-SEAP (hTERT-BJ1), read-out: Relative SEAP activity (%)): 59 ± 15.2%
- IC50 (human hepatoma G2 cells; Homo sapiens, HepG2): > 20 µM
- viability at 48 h, 3.1 µM [2]: 109 ± 3.5%
- viability at 48 h, 31 µM [2]: 108 ± 3.6%
- viability at 48 h, 310 µM [2]: 37 ± 1.3%
- viability at 48 h, 3.1 µM [3, 8]: 117 ± 3%
- viability at 48 h, 31 µM [3, 8]: 95 ± 11.9%
- viability at 48 h, 310 µM [3, 8]: 49 ± 8.9%
- SEAP/vibility ([4]; 3.1 μM, PhTERT-SEAP(hTERT-H1299)): 0.78
- SEAP/vibility ([4]; 31 μM, PhTERT-SEAP(hTERT-H1299)): 0.83
- SEAP/vibility ([4]; 310 μM, PhTERT-SEAP(hTERT-H1299)): 2.16
- activity at 3.1 µM ([4]; Homo sapiens, NCI-H1299, 3.1 μM, PhTERT-SEAP(hTERT-H1299), read-out: Relative SEAP activity (%)): 85 ± 2.3%
- activity at 31 µM ([4]; Homo sapiens, NCI-H1299, 31 μM, PhTERT-SEAP(hTERT-H1299), read-out: Relative SEAP activity (%)): 90 ± 3.3%
- activity at 310 µM ([4]; Homo sapiens, NCI-H1299, 310 μM, PhTERT-SEAP(hTERT-H1299), read-out: Relative SEAP activity (%)): 80 ± 3.1%
- IC50 ([5]; Homo sapiens, HepG2.2.15): > 20 µM

SMILES: CCNc1cccc2c1C(=O)c1c(NCC)cccc1C2=O [Va, 1,8-Bis(ethylamine)-anthraquinone]
- IC50 (rat glioma C6 cells): > 20 µM
- IC50 (human hepatoma G2 cells): > 20 µM
- IC50 [5]: > 20 µM

SMILES: CCCNc1cccc2c1C(=O)c1c(NCCC)cccc1C2=O [Vb, 1,8-Bis(propylamine)-anthraquinone]
- IC50 (rat glioma C6 cells): 0.61 ± 0.01 µM
- IC50 (human hepatoma G2 cells): 0.19 µM
- IC50 [5]: 1.06 µM

SMILES: CCCCNc1cccc2c1C(=O)c1c(NCCCC)cccc1C2=O [Vc]
- IC50 (rat glioma C6 cells): > 20 µM
- IC50 (human hepatoma G2 cells): > 20 µM
- IC50 [5]: > 20 µM
